Laboratory results published in patent US7318917B2, “Rapid assays for neurotransmitter transporters” (Vanderbilt University, priority 2002, dated 2008).

Columns and labels:
SERT [1] = target: T1, SERT (Homo sapiens, UniProt P31645); assay: ASP+ uptake assay on FLEXstation, SERT-transfected HEK-293 cells; assay type: cell-based; conditions: FIG. 10C
T1 construct: expressed in transfected cells
Procedure: HEK-293 cells (American Type Culture Collection, Manassas, Va.) and HEK-293 cells stably transfected with SERT, NET, or DAT (Qian et al, 1997) were maintained in monolayer culture at 37° C., 5% CO2 in Dulbecco's modified Eagle's medium (DMEM) containing 10% fetal bovine serum, 2 mM glutamine, 100 units/ml penicillin, and 100 μg/ml streptomycin. Medium for the transfected lines was supplemented with G418 (250 μg/ml). Trypsin, glutamine, penicillin, streptomycin, G418, and phosphate-free DMEM were purchased from Life Technologies, Inc. or obtained from the Vanderbilt Media Core. For all transport assays, cells were plated on poly-D-lysine (0.1 mg/ml)-coated (0.1 mg/ml)-coated 96-well plates. […]
To limit the time delay between the addition of ASP^+ and the measurement of accumulation of ASP^+ during the kinetic assays, plates were divided in half and assayed one half at a time. […] After incubation, ASP^+ was added to the first 6 columns in 20 μL aliquots at indicated concentrations and accumulated fluorescence measured and recorded over time by the FLEXStation ultilizing SoftMax Pro Software. Then, ASP^+ was added to the last 6 columns and fluorescence accumulation measured and recorded. […]
Endpoint assays were conducted to evaluate the sensitivity of ASP^+ uptake to transporter antagonists. […] ASP^+ accumulation was measured after 10 minutes. […]

DAT [2] = target: T2, DAT (Homo sapiens, UniProt Q01959); assay: ASP+ accumulation in hDAT-transfected HEK cells by confocal fluorescence microscopy; assay type: cell-based; design: expressed in transfected cells; host or cells: HEK-293; conditions: 2 mM ASP as printed in the FIG. 3 legend
T2 sequence (Q01959 whole entry): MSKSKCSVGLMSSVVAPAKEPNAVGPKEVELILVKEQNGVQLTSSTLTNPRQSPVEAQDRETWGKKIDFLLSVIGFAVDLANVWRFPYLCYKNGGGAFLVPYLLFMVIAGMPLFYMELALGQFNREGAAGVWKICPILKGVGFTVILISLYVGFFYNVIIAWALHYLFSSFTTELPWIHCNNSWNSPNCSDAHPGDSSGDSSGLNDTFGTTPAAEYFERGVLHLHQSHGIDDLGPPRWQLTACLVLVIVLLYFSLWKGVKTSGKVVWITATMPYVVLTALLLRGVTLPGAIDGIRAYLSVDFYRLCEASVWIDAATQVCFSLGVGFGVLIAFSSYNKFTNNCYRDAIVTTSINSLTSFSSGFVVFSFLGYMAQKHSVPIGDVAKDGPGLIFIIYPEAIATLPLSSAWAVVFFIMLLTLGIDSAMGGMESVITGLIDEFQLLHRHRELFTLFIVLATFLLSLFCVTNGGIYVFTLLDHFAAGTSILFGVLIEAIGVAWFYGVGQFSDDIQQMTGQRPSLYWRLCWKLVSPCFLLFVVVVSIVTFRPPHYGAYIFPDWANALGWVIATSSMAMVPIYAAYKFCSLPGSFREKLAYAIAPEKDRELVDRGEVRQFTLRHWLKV
Procedure: (§1) FIGS. 3A-3L. Monoamine transporters interact with ASP^+. Like HEK-hNET cells hDAT and hSERT transfected cells accumulate ASP^+. hNET (FIGS. 3A, 3B & 3C), hDAT (FIGS. 3D, 3E & 3F), hSERT (FIGS. 3G, 3H & 3I) and HEK-293 (FIGS. 3J, 3K & 3L) were exposed to 2 mM ASP for the times indicated in FIGS. 3J, 3K & 3L. The color gradient represented in FIG. 3J denotes the corresponding ASP^+ intensity values.
(§2) HEK-hNET cells were plated on 35 mm glass bottom Petri-dishes (MatTek, Ashland, Mass.) coated with poly-L-lysine three days prior to experimentation. The culture medium was aspirated, cells were immediately mounted on a Zeiss 410 confocal microscope and the microscope was focused on the center of the monolayer of cells. During the confocal measurment cells remain without buffer for approximately thirty seconds. Background autoflourescence was established by collecting images for ten seconds prior to the addition of KRH (see Radiolabeled Transport),[…] Glucose, 10 μM ascorbic acid, 10 μM pargalyine, 10 μM tropolone (Sigma, Boulder CO), and ASP^+. […] The effects of photobleaching on ASP^+ accumulation were determined by examining the rate of ASP^+ fluorescence at various acquisition rates. […]
(§3) The fluorescent images were processed using MetaMorph imaging software (Universal Imaging Corporation, Downington Pa.). […] All cells are subtracted against auto-fluorescence.

NET [3] = target: T3, NET (Homo sapiens, UniProt P23975); assay: Fluorescence anisotropy of ASP+ in HEK-hNET cells; assay type: cell-based; design: expressed in transfected cells
T3 sequence (P23975 whole entry): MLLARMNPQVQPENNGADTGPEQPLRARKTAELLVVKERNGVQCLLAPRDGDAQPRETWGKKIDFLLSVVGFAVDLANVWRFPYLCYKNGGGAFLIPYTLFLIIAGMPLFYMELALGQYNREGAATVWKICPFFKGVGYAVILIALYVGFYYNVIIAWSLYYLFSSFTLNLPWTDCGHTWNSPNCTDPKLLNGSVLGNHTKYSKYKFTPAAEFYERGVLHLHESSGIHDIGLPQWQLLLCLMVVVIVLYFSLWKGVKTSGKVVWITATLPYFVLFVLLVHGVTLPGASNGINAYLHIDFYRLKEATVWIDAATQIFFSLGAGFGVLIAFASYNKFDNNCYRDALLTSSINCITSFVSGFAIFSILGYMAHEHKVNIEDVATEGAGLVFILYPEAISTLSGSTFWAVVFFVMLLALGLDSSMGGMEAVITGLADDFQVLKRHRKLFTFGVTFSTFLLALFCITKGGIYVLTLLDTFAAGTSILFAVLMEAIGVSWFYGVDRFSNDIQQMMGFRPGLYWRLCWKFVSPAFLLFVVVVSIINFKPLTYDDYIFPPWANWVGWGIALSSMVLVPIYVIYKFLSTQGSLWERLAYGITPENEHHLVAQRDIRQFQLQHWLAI
Procedure: To evaluate ASP^+ binding to the surface membranes, HEK-hNET cells were exposed to 2 μM ASP^+ with horizontal polarizer (FIG. 5C), with the polarizer rapidly switching to the vertical position. Cells were imaged with alternating polarizations for 3 minutes to measure light intensity in the horizontal (Ih) and vertical (Iv) positions in order to calculate the anisotropy ratio, r=(Iv−gIh)/(Iv+2 g Ih). The factor g was determined by using a half wave plate as described by Blackman et al. (1996). In this formulation, r =0.4 implies an immobile source (Smith et al., 1999). Surface anisotropy was measured from the cell circumference, taken as 1 pixel width. Cytosolic anisotropy was measured near the center of the cell, approximately 5 pixel widths from the membrane.
Notice that rapid accumulation, which peaks at the cell edges (arrows), remains essentially constant between 3 and 180 sec., whereas brightness at the cell center (between arrows) gradually increases over this same period. Furthermore, accumulation at the center occurs at the same rate as phase II (compare phase II slope in FIG. 4 with center elevation in FIG. 5A). […] To test this interpretation the inventors measured the anisotropy of light from cell edges and cell centers.

SERT [4] = target: T1, SERT; assay: ASP+ accumulation in hSERT-transfected HEK cells by confocal fluorescence microscopy; assay type: cell-based; conditions: 2 mM ASP as printed in the FIG. 3 legend
Procedure: as §1, §2, §3

NET [5] = target: T3, NET; assay type: cell-based; design: expressed in transfected cells; conditions: FLEXstation, FIG. 10A
Procedure: (§4) Medium for the transfected lines was supplemented with G418 (250 μg/ml). Trypsin, glutamine, penicillin, streptomycin, G418, and phosphate-free DMEM were purchased from Life Technologies, Inc. or obtained from the Vanderbilt Media Core. For all transport assays, cells were plated on poly-D-lysine (0.1 mg/ml)-coated (0.1 mg/ml)-coated 96-well plates. HEK cells were plated at 12,500 cells per well in 96 well plates, HEK-DAT cells were plated at 15,000 cells per well, HEK-NET cells were plated at 20,000 per well, and HEK-SERT cells were plated at 20,000 per well in a volume of 200 uL. HEK, HEK-DAT, and HEK-SERT cells were grown for 48 hours and HEK-NET cells were grown for 72 hours to a confluency of ˜90%.
(§5) ASP^+ was obtained from Molecular Probes, Inc. and dissolved in KRH buffer to indicated concentrations. Trypan Blue was obtained from Sigma as a 0.4% solution and diluted to a final concentration of 30 uM in KRH buffer.
(§6) To limit the time delay between the addition of ASP^+ and the measurement of accumulation of ASP^+ during the kinetic assays, plates were divided in half and assayed one half at a time. At assay, the medium was removed from wells in the first 6 columns by aspiration, and the cells were incubated with Trypan Blue in KRH buffer for 20 minutes at 37° C.in room air. Then, medium was removed from the wells in the last 6 columns and replaced with Trypan Blue in KRH buffer.

DAT [6] = target: T2, DAT; assay: ASP+ uptake assay on FLEXstation, DAT-transfected HEK-293 cells; assay type: cell-based; design: expressed in transfected cells; conditions: FIG. 10B
Procedure: as §4, §5, §6

NET [7] = target: T3, NET; assay: [3H]NE accumulation (radiolabeled transport assay) in hNET-transfected HEK-293 cells; assay type: cell-based; design: expressed in transfected cells; conditions: Cheng-Prusoff correction, non-specific by 10 μM desipramine, N=5, mean±S.E.M., read-out: Ki, inhibition of [3H]NE accumulation
Procedure: FIG. 1. MPP^+ and ASP^+ inhibit NE accumulation. [^3H]NE accumulation was measured in the hNET-transfected HEK-293 cells in the presence of increasing concentrations of ASP^+ or MPP^+ and normalized to similar data in the absence of an inhibitor. […]. The data were fit to NE transport remaining by the equation y=100/(1+([I]/IC50)^n), where [I] is the concentration of ASP^+ or MPP^+ and Ki values were determined using Cheng-Prusoff correction for substrate concentration. […] Values are represented as means±S.E.M., N=5.
All accumulation studies were performed at room temperature (22° C.) unless otherwise indicated. HEK-hNET cells were plated on poly-L-lysine coated 24-well tissue culture plates at 10^5 cells per well three days prior to performing transport assays. The cells were at approximately 90% confluence on the third day. The medium was removed by aspiration. Cells were then pre-incubated for 10 min in Krebs-Ringer's-Hepes (KRH: in mM 130 NaCl, 1.3 KCl, 2.2 CaCl2, 1.2 MgSO4, 1.2 KH2PO4, 10 Hepes, and 1.8 g/L glucose, pH 7.4) medium with or without 10 μM desipramine. […]. Pargyline (10 μM) and ascorbic acid (10 μM) were added to prevent metabolism and oxidation of NE, respectively. The assay mixture was aspirated after 10 minutes and cells were washed three times with 4° C. […] Accumulated [^3H]NE was determined by liquid scintillation of 1% (w/v) sodium dodecylsulphate solubilized cells. […]

NET [8] = target: T3, NET; assay: ASP+ accumulation in HEK-hNET cells by confocal fluorescence microscopy (phase I binding, phase II transport); design: NET-mediated ASP accumulation after pre-incubation (endocytosis test): dose or concentration left out as unconfirmed; conditions: for phase II (ASP+ transport) slope in the presence of the agent: 10 min pre-incubation with 10 μM cocaine or 30 μM NE; for phase II (ASP+ transport) slope in the presence of the agent / phase I (ASP+ binding) slope in the presence of the agent: then 2 μM ASP+, gramicidin 10 mg/mL 15 min before ASP+; for phase I (ASP+ binding) slope in the presence of the agent: 10 min pre-incubation with 10 μM desipramine, 10 μM cocaine or 30 μM NE
OCT = conditions: 10 μM; cited from earlier work
NET [9] = assay type: cell-based; conditions: 2 μM ASP+, 10 min pre-incubation with 10 μM desipramine
Procedure: SCG neurons were dissociated by trituration followed by digestion with 0.25% trypsin and 0.3% collagenase. Non-neuronal cells were removed by preplating on uncoated, Falcon 60 mm plates. Neurons were cultured on poly-L-ornithine/laminin/poly D-lysine coated MatTek Dishes at a density of 3000-4000 cells/well in F-14^+ media containing 5% fetal calf serum, 2 mM L-glutamine, 60 ng/ml progesterone, 16 mg/ml putrescine, 400 ng/ml L-thyroxine, 38 ng/ml sodium selenite, 340 ng/ml tri-iodothyroxine, 5 mg/ml insulin, penicillin/streptomycin, 10 μM fluorodeoxyuridine and 20 ng/ml NGF. The neurons were maintained for 3-5 days in the presence of NGF before use.
The interactions of ASP^+ with NET in primary tissue culture neurons were also examined.

T1 sequence (P31645 whole entry): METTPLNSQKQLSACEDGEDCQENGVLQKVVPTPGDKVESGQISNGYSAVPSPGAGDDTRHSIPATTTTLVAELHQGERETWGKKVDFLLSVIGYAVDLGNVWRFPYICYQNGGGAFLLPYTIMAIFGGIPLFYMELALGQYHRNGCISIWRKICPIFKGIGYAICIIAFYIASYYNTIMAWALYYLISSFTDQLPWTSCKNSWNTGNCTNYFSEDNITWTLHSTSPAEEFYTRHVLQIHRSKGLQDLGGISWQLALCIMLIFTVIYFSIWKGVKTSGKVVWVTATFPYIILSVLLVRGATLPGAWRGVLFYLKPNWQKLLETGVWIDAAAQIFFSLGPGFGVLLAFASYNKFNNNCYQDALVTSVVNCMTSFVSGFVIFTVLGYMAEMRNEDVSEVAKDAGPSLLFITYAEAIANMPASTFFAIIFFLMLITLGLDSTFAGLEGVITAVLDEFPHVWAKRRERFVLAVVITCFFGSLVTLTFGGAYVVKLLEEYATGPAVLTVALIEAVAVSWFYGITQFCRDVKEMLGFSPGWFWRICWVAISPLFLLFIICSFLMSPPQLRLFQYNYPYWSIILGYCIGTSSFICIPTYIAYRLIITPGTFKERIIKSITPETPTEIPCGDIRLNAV

CN(C)c1ccc(C=Cc2cc[n+](C)cc2)cc1 [ASP^+, 4-(4-dimethylaminostyrl)-N-methylpyridinium]
concentration-response of ASP+ accumulation, SERT (SERT [1]): concentration-dependent accumulation
ASP+ accumulation by hDAT transfected cells (DAT [2]): accumulate
fluorescence anisotropy, solution ASP+ (NET [3]): 0.15
ASP+ accumulation by hSERT transfected cells (SERT [4]): accumulate
concentration-response of ASP+ accumulation, NET (NET [5]): concentration-dependent accumulation
concentration-response of ASP+ accumulation, DAT (DAT [6]): concentration-dependent accumulation
Ki (NET [7]): 780 ± 77 nM
ASP+ accumulation by cells expressing NET (NET [8]; 800 nM ASP+, images at 0, 3 and 180 seconds): accumulate
Phase I n (NET [8]; exponent n of the phase I fit): 1.15±0.30
Phase II n (NET [8]; exponent n of the phase II fit): 1.51±0.35
Phase I Vmax (NET [8]; phase I (ASP+ binding) slope as a function of ASP+ concentration): 10.5±0.94 AFUs/sec
potency of ASP+ accumulation for hNET (NET [8]; summary statement): sub-μM potency

C[n+]1ccc(-c2ccccc2)cc1 [MPP^+]
Ki (NET [7]): 600 ± 67 nM

NC[C@H](O)c1ccc(O)c(O)c1 [NE]
phase II (ASP+ transport) slope in the presence of the agent (NET [8]): reduced
phase I (ASP+ binding) slope in the presence of the agent (NET [8]): insignificant
effect on ASP+ accumulation in hNET-expressing HEK cells (NET [8]; summary statement): competed for

CNCCCN1c2ccccc2CCc2ccccc21 [desipramine]
effect on OCT activity (OCT): without affecting
sensitivity of ASP+ accumulation in SCG cells to desipramine (NET [9]): desipramine sensitive

OC[C@H]1O[C@@](CO)(O[C@H]2O[C@H](CO)[C@@H](O)[C@H](O)[C@H]2O)[C@@H](O)[C@@H]1O [sucrose]
NET-mediated ASP accumulation after pre-incubation (endocytosis test) (NET [8]; thirty-minute pre-incubation): unaffected

Gramicidin
phase II (ASP+ transport) slope in the presence of the agent (NET [8]): reduces the slope
phase I (ASP+ binding) slope in the presence of the agent (NET [8]): reduces the slope
